The results in this text go back to patent publication US20250332173A1, “COMPOUNDS AND METHODS FOR MODULATING NUCLEIC ACID SPLICING” (REMIX THERAPEUTICS INC., priority 2021, published 2025).

The subject of one test is MYB. Put plainly: HiBiT protein abundance assay, MYB HiBiT K562 cell line. Format: cell-based, human. As to conditions: HiBiT K562 cell line, 24 hours, top dose 10 μM; read-out: Effect on protein abundance, MYB (IC50 category). The procedure, abridged: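 Tagged-protein abundance measured by split-NanoBiT luminescence after lysis, following 24 h compound exposure (37° C; 10 μM top, 3-fold, 10 points; DMSO ≤0.25%) of HiBiT knock-in K562 cells. Percent response vs DMSO and unmodified-cell controls; 4-parameter logistic interpolation at 50% gave IC50.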
On the technique in general: With HiBiT, luminescence reflects the tagged protein that the partner subunit can reach.

In a further test the test system is Target C. Put plainly: HiBiT protein abundance assay, Target C (Promega Nano-Glo HiBiT Lytic Detection System, knock-in K562 cell line). It counts as cell-based, human. As to conditions: Homo sapiens, K562, 24 h, HiBiT K562 cell line, 24 hours, top dose 10 μM; read-out: Effect on protein abundance, Target C (IC50 category). In short, it runs like this: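 Protein abundance was read by Nano-Glo HiBiT lytic luminescence after 24 h compound exposure (10-point, threefold series from 10 μM final) of HiBiT knock-in K562 cells. Parental K562 served as baseline; the 50%-abundance concentration was interpolated from a four-parameter logistic fit.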

As usually defined, the IC50 is the midpoint of a concentration-inhibition curve. In the case of `Cn1cc2cc(-c3cc(F)c4c(=O)n(C5CCNCC5)cnc4c3)cc(F)c2n1` [Compound 314], the results for the IC50 in the test with MYB and with Target C were 1000 to 10000 nM and > 10000 nM, respectively.
For `Cn1cc2cc(-c3cc(F)c4c(=O)n(C5CCNCC5)cnc4c3)c(F)cc2n1` [Compound 315] the same measures were 100 to 1000 nM and 1000 to 10000 nM.
As to `Cn1cc2cc(-c3cc(F)c4c(=O)n(C5CCNCC5)cnc4c3)cc(C#N)c2n1` [Compound 316], the IC50 in the test on MYB was < 100 nM; in the test on Target C, 100 to 1000 nM.
Consider `Cc1cn2cc(-c3cc(F)c4c(=O)n(C5CCNCC5)cnc4c3)cc(C)c2n1` [Compound 317], for which the IC50 in the test on MYB is < 100 nM; in the test with Target C, 100 to 1000 nM.
For `Cc1cn2nc(-c3cc(F)c4c(=O)n(C5CCNCC5)cnc4c3)cc2c(C)n1` [Compound 318] the same measures were < 100 nM and 100 to 1000 nM.
For `Cc1cn2cc(-c3cc(F)c4c(=O)n(C5CCNCC5)cnc4c3)nc2c(C)n1` [Compound 319] the same measures were 100 to 1000 nM and 1000 to 10000 nM.
For `COc1cc(-c2cc(F)c3c(=O)n(C4CCNCC4)cnc3c2)cnn1` [Compound 320], in that order: > 10000 nM and > 10000 nM.
Consider `Cc1cn2nc(-c3cc(F)c4c(=O)n(C5CCNCC5)ccc4c3)cc(C)c2n1` [Compound 322], for which the IC50 with MYB and with Target C was < 100 nM in each case.
In the case of `Cc1cn2cc(-c3cc(F)c4c(=O)n([C@H]5CCNC[C@H]5F)cnc4c3)cc(F)c2n1` [Compound 338], the results for the concentration for half-maximal inhibition (IC50) in the test with MYB and in the test with Target C were 100 to 1000 nM and 1000 to 10000 nM, respectively.
For `Cc1cn2cc(-c3cc(F)c4c(=O)n(C5CCNCC5(F)F)cnc4c3)cc(F)c2n1` (stereo not drawn) [Compound 339], in that order: > 10000 nM and > 10000 nM.
For `Cc1cn2cc(-c3cc(F)c4c(=O)n(N5CCNCC5)cnc4c3)cc(F)c2n1` [Compound 340, 5-fluoro-7-{8-fluoro-2-methylimidazo[1,2-a]pyridin-6-yl}-3-(piperazin-1-yl)quinazolin-4-one] the same measures were < 100 nM and 100 to 1000 nM.
For `Cc1cn2cc(-c3cc(F)c4c(=O)n(C5=CCNCC5)cnc4c3)cc(F)c2n1` [Compound 342] the same measures were 100 to 1000 nM and 100 to 1000 nM.
As to `Cc1cn2nc(-c3cc(N(C)C)c4c(=O)n(C5CCNC6(CC6)C5)cnc4c3)cc(C)c2n1` (stereo not drawn) [Compound 345], the IC50 with MYB and with Target C was > 10000 nM in each case.
With `Cc1cn2cc(-c3cc(F)c4c(=O)n([C@H]5CCN[C@H](C)C5)cnc4c3)cc(F)c2n1` [Compound 346, trans-5-fluoro-7-(8-fluoro-2-methylimidazo[1,2-a]pyridin-6-yl)-3-(2-methylpiperidin-4-yl)quina-zolin-4(3H)-one], the IC50 with MYB is < 100 nM; with Target C, 100 to 1000 nM.
For `Cc1cn2cc(-c3cc(F)c4c(=O)n([C@H]5CCNC[C@@H]5O)cnc4c3)cc(F)c2n1` [Compound 347, 5-fluoro-7-{8-fluoro-2-methylimidazo[1,2-a]pyridin-6-yl}-3-[(3S,4S)-3-hydroxypiperidin-4-yl]quinazolin-4-one], the IC50 with MYB was 1000 to 10000 nM; with Target C, > 10000 nM.
For `Cc1cn2cc(-c3cc(F)c4c(=O)n([C@H]5CNCC[C@@H]5O)cnc4c3)cc(F)c2n1` [Compound 348, 5-fluoro-7-{8-fluoro-2-methylimidazo[1,2-a]pyridin-6-yl}-3-[(3S,4S)-4-hydroxypiperidin-3-yl]quinazolin-4-one], in that order: > 10000 nM and > 10000 nM.
For `Cc1cn2nc(-c3ccc4c(=O)n([C@H]5CCNC6(CC6)C5)cnc4c3)cc(C)c2n1` [Compound 349, 3-[(7S)-4-azaspiro[2.5]octan-7-yl]-7-{2,8-dimethylimidazo[1,2-b]pyridazin-6-yl}quinazolin-4-one], in that order: 100 to 1000 nM and 1000 to 10000 nM.
Consider `Cc1cn2nc(-c3ccc4c(=O)n([C@@H]5CCNC6(CC6)C5)cnc4c3)cc(C)c2n1` [Compound 350, 3-[(7R)-4-azaspiro[2.5]octan-7-yl]-7-{2,8-dimethylimidazo[1,2-b]pyridazin-6-yl}quinazolin-4-one], for which the IC50 in the test with MYB and with Target C was < 100 nM each time.
As to `Cc1cn2nc(-c3cc(F)c4c(=O)n(C5CCNC6(CC6)C5)cnc4c3)cc(C)c2n1` (stereo not drawn) [Compound 351], the IC50 in the test on MYB and in the test with Target C was < 100 nM throughout.
In the case of `Cc1cn2cc(-c3cc(F)c4c(=O)n(C5CNCCC5=O)cnc4c3)cc(F)c2n1` (stereo not drawn) [Compound 352, 5-fluoro-7-{8-fluoro-2-methylimidazo[1,2-a]pyridin-6-yl}-3-(4-oxopiperidin-3-yl)quinazolin-4-one], the IC50 with MYB and in the test on Target C was > 10000 nM in each case.
As to `Cc1cn2cc(-c3cc(F)c4c(=O)n(C5CCCNCC5)cnc4c3)cc(F)c2n1` (stereo not drawn) [Compound 353, 3-(azepan-4-yl)-5-fluoro-7-{8-fluoro-2-methylimidazo[1,2-a]pyridin-6-yl}quinazolin-4-one], the IC50 in the test on MYB lay in the range of 100 to 1000 nM; with Target C, 1000 to 10000 nM.
For `Cc1ncc(-c2ccc3c(=O)n(C4CCNCC4)cnc3c2)cn1` [Compound 354, 7-(2-methylpyrimidin-5-yl)-3-(piperidin-4-yl)quinazolin-4(3H)-one], in that order: 1000 to 10000 nM and 1000 to 10000 nM.
Consider `Cc1cn2nc(-c3cc(C)c4c(=O)n(C5CCNCC5)cnc4c3)cc(C)c2n1` [Compound 355], for which the IC50 in the test on MYB and in the test with Target C was < 100 nM in each case.
In the case of `Cc1cn2nc(-c3cc(F)c4c(=O)n([C@@H]5CCNC6(CC6)C5)cnc4c3)cc(C)c2n1` [Compound 356], the IC50 in the test on MYB and in the test with Target C was < 100 nM throughout.
`CNc1cc(-c2cc(F)c3nc(C)cn3c2)cc2ncn(C3CCNCC3)c(=O)c12` [Compound 358, 7-{8-fluoro-2-methylimidazo[1,2-a]pyridine-6-yl}-5-(methylamino)-3-(piperidin-4-yl)quinazolin-4-one]: the IC50 with MYB and with Target C was 1000 to 10000 nM in each case.
For the molecule `CNc1cc(-c2cc(C)c3nc(C)cn3n2)cc2ncn(C3CCNCC3)c(=O)c12` [Compound 359, 7-{2,8-dimethylimidazo[1,2-b]pyridazin-6-yl}-5-(methylamino)-3-(piperidin-4-yl)quinazolin-4-one], the IC50 lay within 100 to 1000 nM in the test with MYB and 1000 to 10000 nM in the test on Target C.
For `CNc1cc(-c2cn3cc(C)nc3c(C)n2)cc2ncn(C3CCNCC3)c(=O)c12` [Compound 360, 7-{2,8-dimethylimidazo[1,2-a]pyrazine-6-yl}-5-(methylamino)-3-(piperidin-4-yl)quinazolin-4-one] the same measures were > 10000 nM and > 10000 nM.
For `Cc1cc(-c2cc(F)c3c(=O)n(C4CCNC5(CC5)C4)cnc3c2)nc2cn(C)nc12` (stereo not drawn) [Compound 361, 3-{4-azaspiro[2.5]octan-7-yl}-7-{2,7-dimethylpyrazolo[4,3-b]pyridin-5-yl}-5-fluoroquinazolin-4-one], in that order: < 100 nM and < 100 nM.
For `Cc1cn2nc(-c3cc(O)c4c(=O)n(C5CCNC5)cnc4c3)cc(C)c2n1` (stereo not drawn) [Compound 362, 7-{2,8-dimethylimidazo[1,2-b]pyridazin-6-yl}-5-hydroxy-3-(pyrrolidin-3-yl)quinazolin-4-one], in that order: 1000 to 10000 nM and > 10000 nM.
Regarding `CNc1cc(-c2cc(C#N)c3nc(C)cn3c2)cc2ncn(C3CCNCC3)c(=O)c12` [Compound 363, 2-methyl-6-[5-(methylamino)-4-oxo-3-(piperidin-4-yl)quinazolin-7-yl]imidazo[1,2-a]pyridine-8-carbonitrile], the IC50 in the test with MYB and with Target C was 1000 to 10000 nM each time.
